Assay results from patent US12049452B2, “Olaparib hydroxybenzoic acid cocrystals and their pharmaceutical use” (NUFORMIX TECHNOLOGIES LIMITED, priority 2021, dated 2024).

Tests used:
[1] = Solid-state stability study under accelerated storage conditions (XRPD form change, HPLC purity); assay type: physicochemical; details: 7 days; for Purity: HPLC
Protocol: Bruker D8 X-Ray Powder Diffraction (XRPD) Characterization: X-ray powder diffraction patterns for the samples were acquired on a Bruker D8 diffractometer using Cu Ka radiation (40 kV, 40 mA) and a θ-2θ goniometer fitted with a Ge monochromator. The incident beam passes through a 2.0 mm divergence slit followed by a 0.2 mm anti-scatter slit and knife edge. The diffracted beam passes through an 8.0 mm receiving slit with 2.5° Soller slits followed by the Lynxeye Detector. The software used for data collection and analysis was Diffrac Plus XRD Commander and Diffrac Plus EVA respectively. Samples were run under ambient conditions over an angular range of 2° to 42° 2θ (using a step size of 0.05° 2θ and a step time of 0.5 seconds) as flat plate specimens using powder as received. The sample was prepared on a polished, zero-background (510) silicon wafer by gently pressing onto the flat surface or packed into a cut cavity. The sample was rotated in its own plane. Small D8 disc recess holders were used to prepare samples.
Chemical Purity Determination by HPLC: Purity analysis was performed on an Agilent HP1100/Infinity II 1260 series system equipped with a diode array detector and using Open LAB software.
A study was carried out to examine the physical stability of the olaparib hydroxybenzoic acid cocrystals with respect to solid form conversion or signs of decomposition over time under accelerated storage conditions. The 1:1 olaparib gentisic acid cocrystal, 2:1 olaparib gentisic acid cocrystal, 1:1 olaparib 2,4-dihydroxybenzoic acid cocrystal, 2:1 2,4-dihydroxybenzoic acid cocrystal, and the 2:1 olaparib 4-hydroxybenzoic acid cocrystal were separately stored at 40° C./75% relative humidity and 25° C./97% relative humidity for 7 days. After this time, all samples remained as white solids with no signs of deliquescence. Each sample was analysed by XRPD to observe any potential form changes and by HPLC to determine purity so as to determine any signs of decomposition.

[2] = Gravimetric Vapour Sorption (GVS) moisture sorption isotherm; assay type: physicochemical; details: for XRPD analysis of the sample post GVS (cocrystal structure): after GVS isotherm
Protocol: Gravimetric Vapour Sorption (GVS): Sorption isotherms were obtained using a SMS DVS Intrinsic moisture sorption analyzer, controlled by DVS Intrinsic Control software. The sample temperature was maintained at 25° C. by the instrument controls. The humidity was controlled by mixing streams of dry and wet nitrogen, with a total flow rate of 200 ml/min. The relative humidity was measured by a calibrated Rotronic probe (dynamic range of 1.0-100% RH), located near the sample. The weight change, (mass relaxation) of the sample as a function of % RH was constantly monitored by a microbalance (accuracy ±0.005 mg).
Typically, 5-30 mg of sample was placed in a tared mesh stainless steel basket under ambient conditions. The sample was loaded and unloaded at 40% RH and 25° C. (typical room conditions). A moisture sorption isotherm was performed as outlined in Table 1 (2 scans per complete cycle). The standard isotherm was performed at 25° C. at 10% RH intervals over a 0-90% RH range. Typically, a double cycle (4 scans) was carried out. Data analysis was carried out within Microsoft Excel using the DVS Analysis Suite. The sample was recovered after completion of the isotherm and re-analyzed by XRPD.

[3] = Dissolution study in simulated intestinal fluid (FaSSIF V2), Pion inForm instrument; assay type: physicochemical; details: FaSSIF V2 pH 6.5, 37° C.
Description: As described in US 2018/0113216, the oral bioavailability of olaparib is dependent on both the dissolution rate and overall solubility of the drug in the gastro-intestinal (GI) tract. US 2018/0113216 describes how olaparib has a propensity for efflux by P-gp at concentrations limiting its permeability and thus limiting its absorption from the GI tract. This efflux ratio is lowered as the concentration of drug in solution increases. Thus, to minimize this efflux issue and achieve optimal absorption and bioavailability it is essential to find a form of olaparib that has as high a dissolution rate as possible in the GI tract and that also maintains a high level of solubility over a sufficient period of time to allow the drug to be absorbed into the blood stream. […] The dissolution study was carried out using 50 mL simulated intestinal fluid (FaSSIF V2) at pH 6.5 (37° C.) using a quantity of each olaparib form equivalent to 25 mg olaparib. […] Detection and quantification of olaparib was performed by in-situ UV-spectroscopy using a fibre-optic probe, allowing instantaneous data collection from the point of sample introduction. UV absorption data was converted to mg/mL (±0.2 mg/mL) using a previously determined pH dependent molar extinction coefficients to quantitate the amount of dissolved drug.

[4] = low solubility and low permeability; cited from earlier work
[5] = across the 0-90% relative humidity range at 25° C. under nitrogen

Row | XRPD Analysis ([1]; 25° C./97% RH) | Purity ([1]; 25° C./97% RH) [%] | XRPD Analysis ([1]; 40° C./75 RH) | Purity ([1]; 40° C./75 RH) [%] | reversibly absorbed moisture (GVS) [2, 5] [% w/w] | XRPD analysis of the sample post GVS (cocrystal structure) [2] | reversibly absorbed moisture (GVS) ([2]; between 0 and 5% RH, 25° C.) [% w/w] | rate of dissolution after particle size reduction ([3]; compared with olaparib form A as supplied) | Compound | amount of olaparib dissolved after particle size reduction ([3]; any one timepoint over a 30-minute time period, compared with form A as supplied) | BCS class [4]
1 | No change | 99.22 | No change | 99.43 |  |  |  |  | O=C(O)c1ccc(O)cc1O.O=C(c1cc(Cc2n[nH]c(=O)c3ccccc23)ccc1F)N1CCN(C(=O)C2CC2)CC1 |  | 
2 | No change | 99.64 | No change | 99.45 | 4.5 | unchanged | 2.5 |  | O=C(O)c1ccc(O)cc1O.O=C(c1cc(Cc2n[nH]c(=O)c3ccccc23)ccc1F)N1CCN(C(=O)C2CC2)CC1.O=C(c1cc(Cc2n[nH]c(=O)c3ccccc23)ccc1F)N1CCN(C(=O)C2CC2)CC1 |  | 
3 | No change | 99.69 | No change | 99.70 | 3.4 | unchanged | 1.5 |  | O=C(O)c1ccc(O)cc1.O=C(c1cc(Cc2n[nH]c(=O)c3ccccc23)ccc1F)N1CCN(C(=O)C2CC2)CC1.O=C(c1cc(Cc2n[nH]c(=O)c3ccccc23)ccc1F)N1CCN(C(=O)C2CC2)CC1 |  | 
4 | No change | 99.79 | No change | 99.70 |  |  |  |  | O=C(O)c1cc(O)ccc1O.O=C(c1cc(Cc2n[nH]c(=O)c3ccccc23)ccc1F)N1CCN(C(=O)C2CC2)CC1 [1:1 olaparib gentisic acid cocrystal] |  | 
5 | No change | 99.64 | No change | 99.59 | 3.4 | unchanged | 1.6 |  | O=C(O)c1cc(O)ccc1O.O=C(c1cc(Cc2n[nH]c(=O)c3ccccc23)ccc1F)N1CCN(C(=O)C2CC2)CC1.O=C(c1cc(Cc2n[nH]c(=O)c3ccccc23)ccc1F)N1CCN(C(=O)C2CC2)CC1 [2:1 olaparib gentisic acid cocrystal] |  | 
6 |  |  |  |  |  |  |  | lower rate of dissolution | O=C(c1cc(Cc2n[nH]c(=O)c3ccccc23)ccc1F)N1CCN(C(=O)C2CC2)CC1 [milled olaparib form A] | overall decrease in the amount of olaparib dissolved | 
7 |  |  |  |  |  |  |  |  | O=C(c1cc(Cc2n[nH]c(=O)c3ccccc23)ccc1F)N1CCN(C(=O)C2CC2)CC1 [olaparib, 4-[(3-{[4-(cyclopropylcarbonyl)piperazin-1-yl]carbonyl}-4-fluorophenyl)methyl]phthalazin-1(2H)-one] |  | class 4
